US9937151B2, “Carbapenem antibacterials with gram-negative activity” (priority 2010, dated 2018)
Values after ≈ are worked out from the molar mass of the structure shown.

System: G(−) bacterial strains
Test: Dilution antimicrobial susceptibility tests (MIC, NCCLS agar dilution / broth dilution)
Type: cell-based, Gram-negative organisms
Conditions: unit assumed
Procedure, shortened: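 Agar dilution on Mueller-Hinton agar at 10^4 CFU/spot and broth dilution at 5×10^5 CFU/well, per NCCLS M7-A5. Streptococci tested on Mueller-Hinton agar with 5% sheep blood. MIC taken as minimum inhibitory concentration; ATCC control strains run alongside.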

[1] = strain #1 Acinetobacter calcoaceticus
[2] = strain #2 Acinetobacter baumannii, Cf-R, Ci-R
[3] = strain #3 Acinetobacter baumannii, Cf-R, Ci-R, Mp-I
[4] = strain #4 Acinetobacter baumannii, Cf-R, Imp-I, CBPase
[5] = strain #7 Enterobacter aerogenes
[6] = strain #8 Enterobacter cloacae, Cf-R, B+
[7] = strain #9 Enterobacter cloacae, Cf-R
[8] = strain #10 Escherichia coli, Ci-R
[9] = strain #11 Escherichia coli, Ci-R, AmpC
[10] = strain #15 Klebsiella pneumoniae
[11] = strain #16 Moraxella catarrhalis
[12] = strain #21 Providencia rettgeri
[13] = strain #22 Salmonella typhimurium
[14] = strain #25 Shigella dysenteriae
[15] = strain #28 Stenotrophomonas maltophilia
[16] = strain #29 Pseudomonas aeruginosa
[17] = strain #30 Pseudomonas aeruginosa
[18] = strain #31 Pseudomonas aeruginosa, Ofx-R
[19] = strain #32 Pseudomonas aeruginosa, Cf-R
[20] = strain #33 Pseudomonas aeruginosa, Ci-R
[21] = strain #34 Pseudomonas aeruginosa, Gen-R
[22] = strain #35 Pseudomonas aeruginosa, Ip-R
[23] = strain #36 Pseudomonas aeruginosa, Cf-R, Ci-R, Mp-R

Row | Structure (SMILES) | MIC [1] [µg/mL] | MIC [2] [µg/mL] | MIC [3] [µg/mL] | MIC [4] [µg/mL] | MIC (strain #5 Citrobacter diversus) [µg/mL] | MIC (strain #6 Citrobacter freundii) [µg/mL] | MIC [5] [µg/mL] | MIC [6] [µg/mL] | MIC [7] [µg/mL] | MIC [8] [µg/mL] | MIC [9] [µg/mL] | MIC (strain #12 Escherichia coli) [µg/mL] | MIC (strain #13 Escherichia coli) [µg/mL] | MIC (strain #14 Klebsiella oxytoca) [µg/mL] | MIC [10] [µg/mL] | MIC [11] [µg/mL] | MIC (strain #17 Morganella Morganii) [µg/mL] | MIC (strain #18 Morganella Morganii) [µg/mL] | MIC (strain #19 Proteus vulgaris) [µg/mL] | MIC (strain #20 Proteus mirabilis) [µg/mL] | other results
1 | C[C@@H](O)C1C(=O)N2C(C(=O)O)=C(CN3CC[C@H](NC(=N)NS(C)(=O)=O)C3)[C@H](C)C12 (stereo partly drawn) [Compound 106] | 4 (≈ 9.31 µM) | 2 (≈ 4.66 µM) | 8 (≈ 18.6 µM) | 2 (≈ 4.66 µM) | 1 (≈ 2.33 µM) | 1 (≈ 2.33 µM) | 2 (≈ 4.66 µM) | 1 (≈ 2.33 µM) | 2 (≈ 4.66 µM) | 1 (≈ 2.33 µM) | 0.5 (≈ 1.16 µM) | 1 (≈ 2.33 µM) | 1 (≈ 2.33 µM) | 2 (≈ 4.66 µM) | 1 (≈ 2.33 µM) | ≤ 0.008 | 4 (≈ 9.31 µM) | 4 (≈ 9.31 µM) | 2 (≈ 4.66 µM) | 1 (≈ 2.33 µM) | MIC [12]: 4 µg/mL (≈ 9.31 µM); MIC [13]: 1 µg/mL (≈ 2.33 µM); MIC (strain #23 Serratia marcescens): 2 µg/mL (≈ 4.66 µM); MIC (strain #24 Serratia marcescens): 2 µg/mL (≈ 4.66 µM); MIC [14]: 1 µg/mL (≈ 2.33 µM); MIC (strain #26 Shigella sonnei): 1 µg/mL (≈ 2.33 µM); MIC (strain #27 Shigella flexneri): 0.5 µg/mL (≈ 1.16 µM); MIC [15]: 1 µg/mL (≈ 2.33 µM); MIC [16]: 8 µg/mL (≈ 18.6 µM); MIC [17]: 8 µg/mL (≈ 18.6 µM); MIC [18]: 4 µg/mL (≈ 9.31 µM); MIC [19]: 8 µg/mL (≈ 18.6 µM); MIC [20]: 8 µg/mL (≈ 18.6 µM); MIC [21]: 8 µg/mL (≈ 18.6 µM); MIC [22]: 16 µg/mL (≈ 37.3 µM); MIC [23]: > 32 µg/mL
2 | C[C@@H](O)C1C(=O)N2C(C(=O)O)=C(CN3CC[C@@H](N)C3)[C@H](C)C12 (stereo partly drawn) [Compound 151] | 0.25 (≈ 0.808 µM) | 0.5 (≈ 1.62 µM) | 2 (≈ 6.46 µM) | 1 (≈ 3.23 µM) | 0.25 (≈ 0.808 µM) | 0.5 (≈ 1.62 µM) | 2 (≈ 6.46 µM) | 0.25 (≈ 0.808 µM) | 0.5 (≈ 1.62 µM) | 0.25 (≈ 0.808 µM) | 0.25 (≈ 0.808 µM) | 0.25 (≈ 0.808 µM) | 0.5 (≈ 1.62 µM) | 0.5 (≈ 1.62 µM) | 0.5 (≈ 1.62 µM) | ≤ 0.008 | 4 (≈ 12.9 µM) | 4 (≈ 12.9 µM) | 1 (≈ 3.23 µM) | 0.5 (≈ 1.62 µM) | MIC [12]: 2 µg/mL (≈ 6.46 µM); MIC [13]: 0.5 µg/mL (≈ 1.62 µM); MIC (strain #23 Serratia marcescens): 1 µg/mL (≈ 3.23 µM); MIC (strain #24 Serratia marcescens): 1 µg/mL (≈ 3.23 µM); MIC [14]: 0.5 µg/mL (≈ 1.62 µM); MIC (strain #26 Shigella sonnei): 0.5 µg/mL (≈ 1.62 µM); MIC (strain #27 Shigella flexneri): 0.25 µg/mL (≈ 0.808 µM); MIC [15]: 0.25 µg/mL (≈ 0.808 µM)
3 | C[C@@H](O)C1C(=O)N2C(C(=O)O)=C(CN3CC[C@@H](NC(=N)N)C3)[C@H](C)C12 (stereo partly drawn) [Compound 156] | 0.5 (≈ 1.42 µM) | 2 (≈ 5.69 µM) | 4 (≈ 11.4 µM) | 2 (≈ 5.69 µM) | 0.5 (≈ 1.42 µM) | 0.5 (≈ 1.42 µM) | 2 (≈ 5.69 µM) | 0.5 (≈ 1.42 µM) | 1 (≈ 2.85 µM) | 0.5 (≈ 1.42 µM) | 0.5 (≈ 1.42 µM) | 0.5 (≈ 1.42 µM) | 0.5 (≈ 1.42 µM) | 1 (≈ 2.85 µM) | 1 (≈ 2.85 µM) | ≤ 0.008 | 4 (≈ 11.4 µM) | 4 (≈ 11.4 µM) | 2 (≈ 5.69 µM) | 0.5 (≈ 1.42 µM) | MIC [12]: 2 µg/mL (≈ 5.69 µM); MIC [13]: 1 µg/mL (≈ 2.85 µM); MIC (strain #23 Serratia marcescens): 2 µg/mL (≈ 5.69 µM); MIC (strain #24 Serratia marcescens): 2 µg/mL (≈ 5.69 µM); MIC [14]: 1 µg/mL (≈ 2.85 µM); MIC (strain #26 Shigella sonnei): 0.5 µg/mL (≈ 1.42 µM); MIC (strain #27 Shigella flexneri): 0.5 µg/mL (≈ 1.42 µM); MIC [15]: 0.5 µg/mL (≈ 1.42 µM)
4 | C[C@@H](O)C1C(=O)N2C(C(=O)O)=C(CN3CC[C@H](C(=O)NCC(N)=O)C3)[C@H](C)C12 (stereo partly drawn) [Compound 137] | 1 (≈ 2.54 µM) | 2 (≈ 5.07 µM) | 8 (≈ 20.3 µM) | 2 (≈ 5.07 µM) | 0.5 (≈ 1.27 µM) | 1 (≈ 2.54 µM) | 2 (≈ 5.07 µM) | 0.5 (≈ 1.27 µM) | 1 (≈ 2.54 µM) | 0.5 (≈ 1.27 µM) | 0.5 (≈ 1.27 µM) | 0.5 (≈ 1.27 µM) | 1 (≈ 2.54 µM) | 1 (≈ 2.54 µM) | 1 (≈ 2.54 µM) | ≤ 0.008 | 4 (≈ 10.1 µM) | 4 (≈ 10.1 µM) | 2 (≈ 5.07 µM) | 0.5 (≈ 1.27 µM) | MIC [12]: 2 µg/mL (≈ 5.07 µM); MIC [13]: 1 µg/mL (≈ 2.54 µM); MIC (strain #23 Serratia marcescens): 2 µg/mL (≈ 5.07 µM); MIC (strain #24 Serratia marcescens): 2 µg/mL (≈ 5.07 µM); MIC [14]: 1 µg/mL (≈ 2.54 µM); MIC (strain #26 Shigella sonnei): 1 µg/mL (≈ 2.54 µM); MIC (strain #27 Shigella flexneri): 0.5 µg/mL (≈ 1.27 µM); MIC [15]: 0.5 µg/mL (≈ 1.27 µM)
5 | CC(=O)N[C@H]1CCN(CC2=C(C(=O)O)N3C(=O)C([C@@H](C)O)C3[C@H]2C)C1 (stereo partly drawn) [Compound 32] | 2 (≈ 5.69 µM) | 2 (≈ 5.69 µM) | 4 (≈ 11.4 µM) | 2 (≈ 5.69 µM) | 1 (≈ 2.85 µM) | 1 (≈ 2.85 µM) | 4 (≈ 11.4 µM) | 1 (≈ 2.85 µM) | 2 (≈ 5.69 µM) | 1 (≈ 2.85 µM) | 0.5 (≈ 1.42 µM) | 1 (≈ 2.85 µM) | 1 (≈ 2.85 µM) | 2 (≈ 5.69 µM) | 2 (≈ 5.69 µM) | 0.016 (≈ 0.0455 µM) | 8 (≈ 22.8 µM) | 4 (≈ 11.4 µM) | 4 (≈ 11.4 µM) | 1 (≈ 2.85 µM) | MIC [12]: 4 µg/mL (≈ 11.4 µM); MIC [13]: 1 µg/mL (≈ 2.85 µM); MIC (strain #23 Serratia marcescens): 2 µg/mL (≈ 5.69 µM); MIC (strain #24 Serratia marcescens): 2 µg/mL (≈ 5.69 µM); MIC [14]: 1 µg/mL (≈ 2.85 µM); MIC (strain #26 Shigella sonnei): 1 µg/mL (≈ 2.85 µM); MIC (strain #27 Shigella flexneri): 0.5 µg/mL (≈ 1.42 µM); MIC [15]: 1 µg/mL (≈ 2.85 µM); MIC [16]: 16 µg/mL (≈ 45.5 µM); MIC [17]: 16 µg/mL (≈ 45.5 µM); MIC [18]: 4 µg/mL (≈ 11.4 µM); MIC [19]: 16 µg/mL (≈ 45.5 µM); MIC [20]: 16 µg/mL (≈ 45.5 µM); MIC [21]: 16 µg/mL (≈ 45.5 µM); MIC [22]: 32 µg/mL (≈ 91.1 µM); MIC [23]: > 32 µg/mL
